Results as given in patent US10183039B2, “Methods for the production of collagen IV” (Vanderbilt University, priority 2013, dated 2019).

Target: T1, peroxidasin (Mus musculus, UniProt Q3UQ28)
T1 construct: Cultured murine PFHR9 cells synthesize collagen IV networks that contain sulfilimine crosslinks due to the activity of PXDN; endogenous in cells; host or cells: PFHR-9 cells (isolated matrix from KI-treated culture)
T1 sequence (Q3UQ28 24-1475): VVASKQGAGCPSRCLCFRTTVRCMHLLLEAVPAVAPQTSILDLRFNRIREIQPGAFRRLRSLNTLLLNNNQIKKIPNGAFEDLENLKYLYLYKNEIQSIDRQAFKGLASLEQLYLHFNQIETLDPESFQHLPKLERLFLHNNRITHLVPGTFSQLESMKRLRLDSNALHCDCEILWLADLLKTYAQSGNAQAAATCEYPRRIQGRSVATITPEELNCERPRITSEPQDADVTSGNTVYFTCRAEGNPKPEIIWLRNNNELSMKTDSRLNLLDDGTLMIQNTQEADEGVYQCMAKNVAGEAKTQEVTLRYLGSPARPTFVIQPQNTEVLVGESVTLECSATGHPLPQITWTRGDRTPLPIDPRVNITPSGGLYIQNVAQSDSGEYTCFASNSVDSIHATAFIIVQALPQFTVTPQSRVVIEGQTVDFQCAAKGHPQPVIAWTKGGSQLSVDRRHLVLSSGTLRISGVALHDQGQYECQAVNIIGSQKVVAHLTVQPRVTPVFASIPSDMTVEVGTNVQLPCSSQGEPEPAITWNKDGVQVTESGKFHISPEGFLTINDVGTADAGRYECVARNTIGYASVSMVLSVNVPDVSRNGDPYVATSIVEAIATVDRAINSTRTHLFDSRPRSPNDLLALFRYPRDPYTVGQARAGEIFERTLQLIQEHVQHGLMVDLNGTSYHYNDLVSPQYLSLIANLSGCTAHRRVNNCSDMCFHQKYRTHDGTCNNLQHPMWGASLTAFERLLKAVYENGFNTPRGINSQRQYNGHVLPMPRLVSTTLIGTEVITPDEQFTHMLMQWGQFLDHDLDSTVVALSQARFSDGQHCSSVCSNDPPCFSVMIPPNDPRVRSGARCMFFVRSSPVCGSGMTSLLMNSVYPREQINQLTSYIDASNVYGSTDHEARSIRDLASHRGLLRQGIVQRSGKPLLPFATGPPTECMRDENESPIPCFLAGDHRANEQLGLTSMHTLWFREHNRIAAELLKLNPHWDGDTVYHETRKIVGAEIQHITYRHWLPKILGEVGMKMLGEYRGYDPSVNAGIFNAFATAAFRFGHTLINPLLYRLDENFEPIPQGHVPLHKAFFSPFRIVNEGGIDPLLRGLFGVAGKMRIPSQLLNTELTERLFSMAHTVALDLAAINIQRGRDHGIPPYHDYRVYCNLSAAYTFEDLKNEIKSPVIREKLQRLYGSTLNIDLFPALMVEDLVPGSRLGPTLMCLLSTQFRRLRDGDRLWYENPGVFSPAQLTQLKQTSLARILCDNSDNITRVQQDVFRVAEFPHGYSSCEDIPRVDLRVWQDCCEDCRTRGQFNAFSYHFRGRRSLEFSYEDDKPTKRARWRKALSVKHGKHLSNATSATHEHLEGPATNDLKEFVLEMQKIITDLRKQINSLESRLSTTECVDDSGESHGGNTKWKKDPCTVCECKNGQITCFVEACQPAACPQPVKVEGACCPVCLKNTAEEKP
Experiment: In vitro basement membrane (uncrosslinked PFHR-9 matrix) reaction with halides and H2O2
Format: biochemical
Procedure: (FIG. 8A) Matrix pellets isolated from KI-treated PFHR9 cell culture were extensively washed into 10 mM phosphate buffer (pH 7.4) supplemented with 100 mM KF to maintain ionic strength. Potassium salts of Cl— or Br— were added in indicated amounts. 1 hr reactions at 37° C. were initiated by addition of H2O2 to 1 mM and stopped by freezing at −20° C. Coomassie blue-stained gels after collagenase digestion of the samples and SDS-PAGE (FIG. 8B) Schematic of Br-Free chloride salt purification apparatus and setup. […] Reagent KCl was commercially obtained and unaltered prior to analysis. 100 mM solutions were made with 18MΩ deionized water. (FIG. 8C) Coomassie blue stained gel of collagenase digested PFHR-9 matrix reaction assay. Reaction buffered contained 10 mM phosphate buffer (pH 7.4), 100 mM Br-Free or Commercially obtained reagent grade KCl, as well as 1 mM H2O2 and 200 μM PHG where appropriate. (FIG. 8D) SDS-PAGE and coomassie blue stain of hPXDN (27.25 nM) and NC1 domain (1.3 μM) reaction and subsequent densiometric quantitation of S═N bond formation stiochiometry in response to NaBr addition. hPXDN and PFHR-9 NC1 domain were prepared and purified as described (5), except with all buffers for all purification steps (dialysis, chromatography, gradient ultracentrifugation) made with Br-Free chloride salts. Reactions were run for 10 minutes at 37° C. with 10 μM H2O2 as the terminal oxidant. Dose-response curve run in the presence of 1× Br-Free PBS. Reactions were quenched with 0.2 mg/ml Catalase, 20 mM Methionine, and 1 mM PHG. EC50 value±95% C.I. from two independent experiments with each data point plotted and fit.
Uncrosslinked PFHR9 matrix was extensively washed into 10 mM phosphate buffer (pH 7.4) that was supplemented with 100 mM KF to maintain ionic strength. One hour reactions at 37° C. were initiated by addition of H2O2 to 1 mM and stopped by freezing at −20° C. […] Samples were digested with collagenase at 37° C. overnight and visualized by SDS-PAGE using 12% gels under non-reducing conditions with Coomassie staining.
PFHR-9 cells treated with potassium iodide (1-10 mM) to eliminate NC1 hexamer crosslinks were used for basement membrane isolation. To test halide dependency, the inventors established halide-free conditions by washing extensively (at least five times) with 10 mM sodium phosphate pH 7.4. To try to extract or inactivate endogenous basement membrane peroxidase activity, the inventors extracted the matrix preparation twice with 2M guanidine-Cl, 50 mM Tris-Cl pH 7.5 and 10 mM EDTA-Na pH 8 followed by extensive washing with 1×PBS. Basement membrane was resuspended in the desired buffer with or without cofactors and inhibitors to examine in vitro NC1 crosslinking under various conditions. Basement membranes were collagenase solubilized to delineate collagen IV NC1 sulfilimine crosslink formation with SDS-PAGE and Coomassie blue staining membrane was isolated, washed extensively and resuspended in 1×PBS. Azide (0-10 mM) and 1 mM H2O2 were added and allowed to react for 1 h at 37° C. The matrix was pelleted, washed extensively with 1×PBS and solubilized with 1×PBS plus 2% (w/v) SDS. Solubilized proteins were reacted with 100 μM Tris[(1-benzyl-1H-1,2,3-triazol-4-yl)methyl]amine (Anaspec), 1 mM Tris(2-carboxyethyl)phosphine hydrochloride (ThermoFisher Pierce), 1 mM cupric sulfate and 100 μM biotin alkyne (PEG4 carboxamide-propargyl biotin; Life Technologies) for 1 h at 37° C. Click chemistry reactions were quenched with 1 mM 3′-azido-3′-deoxythymidine (Sigma). For avidin-HRP detection, samples were electrophoresed under reducing conditions, transferred to nitrocellulose membranes and probed with streptavidin-HRP according to manufacturer instructions (ThermoFisher Pierce). To isolate biotinylated proteins, the inventors precipitated click reaction products with two volumes of cold acetone to remove reactants, washed them with 70% (v/v) acetone and then resolubilized them in 1×PBS plus 2% SDS.

Structure (SMILES): Br [bromide]
- crosslink formation on bromide addition to Br-free chloride: restored
- halide concentration at which crosslinked dimeric subunits formed: ~100 mM
- halide concentration permitting enzymatic crosslinking within purified matrix: 10 µM
- S═N bond formation in isolated matrix (pH 7.4): robustly catalyzed bond formation at 10 μM
